Tests used:
Format in all cases: in vivo
[1] = test system: Pyrenophora [syn. Drechslera] teres; assay: Activity against net blotch of barley caused by Pyrenophora teres, 1 day protective application; settings: 144 h, single active compound, after 6 days, control 90% infection, read-out: Observed activity (% infection); for inhibition at 16 µg/mL: 16 mg/l
Procedure: (§1) The active compounds, separately or jointly, were prepared as a stock solution comprising 25 mg of active compound which was made up to 10 ml using a mixture of acetone and/or dimethyl sulfoxide and the emulsifier Uniperol® EL (wetting agent having an emulsifying and dispersing action based on ethoxylated alkylphenols) in a ratio by volume of solvent/emulsifier of 99:1. The mixture was then made up to 100 ml with water. This stock solution was diluted with the solvent/emulsifier/water mixture described to give the concentration of active compound stated below.
(§2) Alternatively, the active compounds epoxiconazole and pyraclostrobin were used as a commercial formulation and diluted with water to the stated active compound concentrations.
(§3) The visually determined percentages of infected leaf areas were converted into efficacies in % of the untreated control.
(§4) The efficacy (E) is calculated as follows using Abbot's formula: […]
(§5) α corresponds to the fungicidal infection of the treated plants in % and β corresponds to the fungicidal infection of the untreated (control) plants in %
(§6) An efficacy of 0 means that the infection level of the treated plants corresponds to that of the untreated control plants; an efficacy of 100 means that the treated plants were not infected.
(§7) The expected efficacies of active compound mixtures were determined using Colby's formula [R. S. Colby, “Calculating synergistic and antagonistic responses of herbicide combinations”, Weeds 15, 20-22 (1967)] and compared with the observed efficacies. […]
Leaves of potted barley seedlings were sprayed to runoff point with an aqueous suspension having the concentration of active compound stated below. […] After 6 days, the extent of the development of the disease was determined visually in % infection of the entire leaf area.

[2] = test system: Puccinia recondita; assay: Protective activity against Puccinia recondita on wheat (brown rust of wheat); settings: single active compound, control 90% infection, read-out: Observed activity (% infection)
Procedure: as §1, §2, §3, §4, §5, §6
(§8) The expected efficacies of active compound mixtures were determined using Colby's formula [R. S. Colby, “Calculating synergistic and antagonistic responses of herbicide combinations”, Weeds 15, 20-22 (1967)] and compared with the observed efficacies.
(§9) E=x+y−x·y/100 Colby's formula • E expected efficacy, expressed in % of the untreated control, when using the mixture of the active compounds A and B at the concentrations a and b; • x efficacy, expressed in % of the untreated control, when using the active compound A at the concentration a; • y efficacy, expressed in % of the untreated control, when using the active compound B at the concentration b;
Leaves of potted wheat seedlings of the cultivar “Kanzler” were sprayed to runoff point with an aqueous suspension having the concentration of active compound stated below. The next day the treated plants were inoculated with a spore suspension of brown rust of wheat (Puccinia recondita). The plants were then placed in a chamber at high atmospheric humidity (90 to 95%) at 20 to 22° C. for 24 hours. During this time, the spores germinated and the germ tubes penetrated into the leaf tissue. The next day, the test plants were returned to the greenhouse and cultivated at temperatures between 20 and 22° C. and 65 to 70% relative atmospheric humidity for a further 7 days. The extent of the rust fungus development on the leaves was then determined visually.

[3] = test system: Alternaria solani; assay: Activity against early blight on tomatoes caused by Alternaria solani (protective spray, potted tomato plants); settings: 120 h, single active compound, efficacy in % of untreated control (Abbot), evaluated after 5 days, control 90% infection, read-out: Observed activity (% infection); for inhibition at 1 µg/mL: 1 mg/l; for inhibition at 4 µg/mL: 4 mg/l
Procedure: as §1, §2, §3, §4, §5, §6, §8, §9
Leaves of potted tomato plants were sprayed to runoff point with an aqueous suspension having the concentration of active compounds stated below. The next day, the leaves were infected with an aqueous spore suspension of Alternaria solani in a 2% biomalt solution having a density of 0.17×10^6 spores/ml. The plants were then placed in a water vapor-saturated chamber at temperatures between 20 and 22° C. After 5 days, the disease on the untreated, but infected control plants had developed to such an extent that the infection could be determined visually in %.

[4] = test system: Botrytis cinerea; assay: Activity against gray mold on bell pepper leaves caused by Botrytis cinerea, 1 day protective application; settings: 120 h, single active compound, 1 mg/l, efficacy in % of untreated control, after 5 days, control 100% infection, read-out: Observed activity (% infection)
Procedure: as §1, with “below. […]” for “below.”
as §3, §4, §7
Bell pepper seedlings of the cultivar “Neusiedler Ideal Elite” were, after 2-3 leaves were well developed, sprayed to runoff point with an aqueous suspension in the active compound concentration stated below. […] After 5 days, the extent of the fungal infection on the leaves could be determined visually in %.

[5] = test system: Puccinia recondita; assay: Curative activity against brown rust of wheat caused by Puccinia recondita; settings: 168 h, single active compound, sprayed the day after inoculation, 7 days, control 90% infection, read-out: Observed activity (% infection)
Procedure: as §1, §2, §3, §4, §7
Leaves of wheat seedlings of the cultivar “Kanzler” cultivated in pots were inoculated with a spore suspension of brown rust (Puccinia recondita). […] The extent of the rust fungus development on the leaves was then determined.

## COc1cc(C)c(C(=O)c2c(OC)ccc(Br)c2C)c(OC)c1OC [metrafenone, 3′-bromo-2,3,4,6′-tetramethoxy-2′,6-dimethylbenzophenone]
[1]
  inhibition at 16 µg/mL: 0%
[2]; 63 mg/l
  inhibition at 63 µg/mL: 0%

## Cn1cc(C(=O)Nc2ccccc2-c2ccc(F)cc2F)c(C(F)F)n1 [No. I.11, N-(2′,4′-difluorobiphenyl-2-yl)-1-methyl-3-difluoromethyl-1H-pyrazole-4-carboxamide]
[3]
  inhibition at 1 µg/mL: 0%
[1]; 4 mg/l
  inhibition at 4 µg/mL: 63%
[4]
  inhibition at 1 µg/mL: 0%

## Fc1ccc([C@]2(Cn3cncn3)O[C@H]2c2ccccc2Cl)cc1 (racemic) [epoxiconazole, (2RS,3SR)-1-[3-(2-chlorophenyl)-2,3-epoxy-2-(4-fluorophenyl)propyl]-1H-1,2,4-triazole]
[5]; 0.25 mg/l
  inhibition at 0.25 µg/mL: 0%
[2]; 0.063 mg/l
  inhibition at 0.063 µg/mL: 11%

## Cn1cc(C(=O)Nc2ccccc2-c2ccc(Cl)cc2Cl)c(C(F)F)n1 [No. I.7, N-(2′,4′-dichlorobiphenyl-2-yl)-1-methyl-3-difluoromethyl-1H-pyrazole-4-carboxamide]
[3]
  inhibition at 1 µg/mL: 0%
[2]; 0.25 mg/l
  inhibition at 0.25 µg/mL: 11%

## CC1CCN(c2c(-c3c(F)cc(F)cc3F)c(Cl)nc3ncnn23)CC1 [5-chloro-7-(4-methylpiperidin-1-yl)-6-(2,4,6-trifluorophenyl)-[1,2,4]triazolo[1,5-a]pyrimidine]
[3]
  inhibition at 4 µg/mL: 22%

## Cn1nc(C(F)(F)F)c(C(=O)Nc2ccccc2-c2ccc(Cl)cc2Cl)c1F [No. I.17, N-(2′,4′-dichlorobiphenyl-2-yl)-1-methyl-3-trifluoromethyl-5-fluoro-1H-pyrazole-4-carboxamide]
[3]
  inhibition at 1 µg/mL: 0%
[5]; 1 mg/l
  inhibition at 1 µg/mL: 0%
[2]; 16 mg/l
  inhibition at 16 µg/mL: 22%

## COc1ccc(C(=CC(=O)N2CCOCC2)c2ccc(Cl)cc2)cc1OC [dimethomorph, 3-(4-chlorophenyl)-3-(3,4-dimethoxyphenyl)-1-morpholin-4-ylpropenone]
[3]
  inhibition at 4 µg/mL: 0%
[1]
  inhibition at 16 µg/mL: 0%

## COC(=O)N(OC)c1ccccc1COc1ccn(-c2ccc(Cl)cc2)n1 [pyraclostrobin, methyl N-{2-[1-(4-chlorophenyl)-1H-pyrazol-3-yloxymethyl]phenyl}(N-methoxy)carbamate]
[4]
  inhibition at 1 µg/mL: 0%

Source: patent US20090042724A1, “Fungicidal mixtures based on 2,4-disubstituted n-biphenylpyrazolecarboxamides” (priority 2005, published 2009)
